Assay [1] deals with MDA-MB-231. Put plainly: MTT cytotoxicity assay. Format: cell-based, human. The settings on record: for IC50: MTT, 72 h, human breast adenocarcinoma; for SI MDA-MB-231: SI = IC50 for normal cell line (HaCaT)/IC50 cancer cell line. The protocol: (§1) The human primary (SW480) and metastatic (SW620) colon cancer, metastatic prostate cancer (PC3), breast adenocarcinoma (MDA-MB-231) and human immortal keratinocyte (HaCaT) cell lines were recruited from the American Type Culture Collection (ATCC). The cells were cultured in the recommended medium according to protocols (RPMI 1640 for PC3, MEM for SW480 and SW620, as well as DMEM for MDA-MB-231 and HaCaT cells) with addition of 10% FBS, penicillin (100 U/mL), and streptomycin (100 μg/mL) and cultured in 37 °C/5% CO2 in a humidified incubator. Then, the cells were passaged at a confluence of 80–90% by a treatment with 0.25% trypsin (Gibco Life Technologies) and used for studies.
(§2) They were added to 96-well plates with seeded normal and cancer cells (1 × 10^4 cells per well) and incubated for 72 h. MTT analysis was performed according to a previous study.

The test system of assay [2] is SW480. Briefly: MTT cytotoxicity assay. In kind it is cell-based, human. The settings on record: for IC50: MTT, 72 h, human primary colon cancer; for SI SW480: SI = IC50 for normal cell line (HaCaT)/IC50 cancer cell line. The protocol: as §1, §2
In general terms: Formazan colour is commonly taken as a measure of viable cells.

In assay [3] the test system is SW620. Briefly: MTT cytotoxicity assay. In kind it is cell-based, human. The settings on record: for IC50: MTT, 72 h, human metastatic colon cancer; for SI SW620: SI = IC50 for normal cell line (HaCaT)/IC50 cancer cell line. The protocol: as §1, §2
For assay [4], the system named is PC3. Put plainly: MTT cytotoxicity assay. Format: cell-based, human. To be noted: for IC50: MTT, 72 h, human metastatic prostate cancer; for SI PC3: SI = IC50 for normal cell line (HaCaT)/IC50 cancer cell line. The protocol: as §1, §2
In assay [5] the test system is HaCaT. Put plainly: MTT cytotoxicity assay, normal cells. In kind it is cell-based. To be noted: 72 h, human immortal keratinocytes (normal cells). On the procedure:
as §1, §2

Assay [6] has as its system tested cancer cell lines (SW480, SW620, PC3, MDA-MB-231). Put plainly: MTT assay, mean over tested cancer cell lines. Format: cell-based. To be noted: Homo sapiens, mean of the four cancer cell lines. The protocol: They were added to 96-well plates with seeded normal and cancer cells (1 × 10^4 cells per well) and incubated for 72 h. MTT analysis was performed according to a previous study. […]

Setting [7] is: Table S7, >100 entered as 100, read-out: mean anticancer IC50.
Setting [8] is: read-out: average IC50 against tested cancer cell lines.

Like-named read-outs stand apart in the source and are kept apart here.

One may read the IC50 as the midpoint of a concentration-inhibition curve. In the case of `N.N.[Cl][Pt][Cl]` [Cisplatin, reference compound], the IC50 was determined as 7.3 ± 0.8 µM in assay [1], 10.4 ± 0.9 µM in assay [2] and 6.7 ± 1.1 µM in assay [3].
Take `CC(C)[C@H]1CC[C@H](C)C[C@@H]1OC(=O)c1cc2ccccc2oc1=O` [Compound 1b, (1S,2R,5S)-2-Isopropyl-5-methylcyclohexyl 2-oxo-2H-chromene-3-carboxylate]: the IC50 in assay [1] (MDA-MB-231) is over 100 µM; in assay [4] (PC-3), over 100 µM; in assay [2] (SW480), over 100 µM; in assay [3] (SW-620) it was over 100 µM; in assay [5] (HaCaT), 41.1 ± 2.8 µM; in assay [6] (setting [7]) it was over 100 µM. Besides, the “SI MDA-MB-231” value in assay [1] was 0.41. Also, in assay [4], the “SI PC3” value is reported as 0.41. In addition, the “SI SW480” value in assay [2] is 0.41. In addition, the “SI SW620” value in assay [3] came to 0.41.
Consider `COc1ccc2cc(C(=O)O[C@@H]3C[C@H](C)CC[C@H]3C(C)C)c(=O)oc2c1` [Compound 1c, (1R,2S,5R)-2-Isopropyl-5-methylcyclohexyl 7-methoxy-2-oxo-2H-chromene-3-carboxylate], for which the IC50 is over 100 µM in assay [1] (MDA-MB-231); over 100 µM in assay [4] (PC-3); over 100 µM in assay [2] (SW480); over 100 µM in assay [3] (SW-620); 15.3 ± 4.41 µM in assay [5] (HaCaT); over 100 µM in assay [6] (setting [7]). Further, the “SI MDA-MB-231” value in assay [1] was determined as 0.15. Moreover, in assay [4], the “SI PC3” value is 0.15. For the same molecule, the “SI SW480” value in assay [2] was determined as 0.15. The “SI SW620” value in assay [3] is reported as 0.15.
As to `COc1cccc2cc(C(=O)O[C@@H]3C[C@H](C)CC[C@H]3C(C)C)c(=O)oc12` [Compound 1d, (1R,2S,5R)-2-Isopropyl-5-methylcyclohexyl 8-Methoxy-2-oxo-2H-chromene-3-carboxylate], the IC50 in assay [1] (MDA-MB-231) is 36.6 ± 7.74 µM; in assay [4] (PC-3), 29.3 ± 2.05 µM; in assay [2] (SW480), 25.4 ± 6.12 µM; in assay [3] (SW-620) it was over 100 µM; in assay [5] (HaCaT), over 100 µM; in assay [6] (setting [7]), over 47.8 µM. For the same molecule, the IC50 in assay [6] (setting [8]) is over 47.8 µM. The “SI MDA-MB-231” value in assay [1] was found to be 2.73. Moreover, in assay [4], the “SI PC3” value is recorded as 3.41. The “SI SW480” value in assay [2] is recorded as 3.93. Further, the “SI SW620” value in assay [3] is recorded as 1.
`CC(C)[C@@H]1CC[C@@H](C)C[C@H]1OC(=O)c1cc2ccc(O)cc2oc1=O` [Compound 1e, (1R,2S,5R)-2-Isopropyl-5-methylcyclohexyl 7-hydroxy-2-oxo-2H-chromene-3-carboxylate]: the IC50 in assay [1] (MDA-MB-231) was determined as 86.7 ± 2.24 µM; in assay [4] (PC-3) it was 21.8 ± 4.21 µM; in assay [2] (SW480), 27.7 ± 2.42 µM; in assay [3] (SW-620) it was 38.7 ± 0.01 µM; in assay [5] (HaCaT), 78.8 ± 7.12 µM; in assay [6] (setting [7]) it was 43.7 µM. Besides, in assay [6] (setting [8]), the IC50 was found to be 43.7 µM. In assay [1], the “SI MDA-MB-231” value was determined as 0.91. For the same molecule, the “SI PC3” value in assay [4] was found to be 3.61. In addition, the “SI SW480” value in assay [2] is 2.84. For the same molecule, in assay [3], the “SI SW620” value is recorded as 2.03.
Consider `O=C(OC1CCCCC1)c1cc2ccccc2oc1=O` [Compound 1f, Cyclohexyl 2-Oxo-2H-chromene-3-carboxylate], for which the IC50 in assay [1] (MDA-MB-231), in assay [4] (PC-3), in assay [2] (SW480), in assay [3] (SW-620), in assay [5] (HaCaT) and in assay [6] (setting [7]) was over 100 µM in each case. Further, in assay [1], the “SI MDA-MB-231” value came out at 1. In assay [4], the “SI PC3” value came to 1. In addition, in assay [2], the “SI SW480” value worked out at 1. In addition, the “SI SW620” value in assay [3] was 1.
`CCOP(=O)(OCC)c1cc2ccccc2oc1=O` [Compound 2a, Diethyl (2-Oxo-2H-chromen-3-yl)phosphonate]: the IC50 in assay [1], in assay [4], in assay [2], in assay [3] and in assay [5] was over 100 µM in each case. Also, in assay [1], the “SI MDA-MB-231” value came out at 1. In addition, the “SI PC3” value in assay [4] was determined as 1. Further, in assay [2], the “SI SW480” value is reported as 1. The “SI SW620” value in assay [3] was determined as 1.
In the case of `COc1cccc2cc(P(=O)(c3ccccc3)c3ccccc3)c(=O)oc12` [Compound 3, 3-(Diphenylphosphinyl)-8-methoxy-2H-chromen-2-one], the IC50 in assay [1] (MDA-MB-231), in assay [4] (PC-3), in assay [2] (SW480), in assay [3] (SW-620), in assay [5] (HaCaT) and in assay [6] (setting [7]) was over 100 µM throughout. Moreover, the “SI MDA-MB-231” value in assay [1] is recorded as 1. The “SI PC3” value in assay [4] is on record as 1. Also, the “SI SW480” value in assay [2] was 1. In addition, the “SI SW620” value in assay [3] is on record as 1.
Consider `CCOC(=O)C1C(=O)Oc2ccccc2C1P(=O)(c1ccccc1)c1ccccc1` (centres unmarked) [Compound 4c, Ethyl 4-(Diphenylphosphoryl)-2-oxochroman-3-carboxylate], for which the IC50 in assay [1] (MDA-MB-231), in assay [4] (PC-3), in assay [2] (SW480), in assay [3] (SW-620), in assay [5] (HaCaT) and in assay [6] (setting [7]) was over 100 µM each time. Moreover, the “SI MDA-MB-231” value in assay [1] is reported as 1. In assay [4], the “SI PC3” value worked out at 1. The “SI SW480” value in assay [2] is listed as 1. Further, the “SI SW620” value in assay [3] came to 1.
As to `CCOC(=O)C1C(=O)Oc2ccccc2C1P(=O)(OCC)OCC` (centres unmarked) [Compound 4d, Ethyl 4-(diethoxyphosphoryl)-2-oxochroman-3-carboxylate], the IC50 in assay [1] (MDA-MB-231), in assay [4] (PC-3), in assay [2] (SW480), in assay [3] (SW-620), in assay [5] (HaCaT) and in assay [6] (setting [7]) was over 100 µM each time. The “SI MDA-MB-231” value in assay [1] worked out at 1. Moreover, the “SI PC3” value in assay [4] is 1. Further, the “SI SW480” value in assay [2] is on record as 1. Also, the “SI SW620” value in assay [3] is on record as 1.
`CCOP(=O)(OCC)C1C(=O)Oc2ccccc2C1P(=O)(c1ccccc1)c1ccccc1` (centres unmarked) [Compound 5a, Diethyl (4-(Diphenylphosphoryl)-2-oxochroman-3-yl)phosphonate]: the IC50 in assay [1] (MDA-MB-231), in assay [4] (PC-3), in assay [2] (SW480), in assay [3] (SW-620), in assay [5] (HaCaT) and in assay [6] (setting [7]) was over 100 µM each time. Also, the “SI MDA-MB-231” value in assay [1] was 1. In addition, in assay [4], the “SI PC3” value amounted to 1. The “SI SW480” value in assay [2] is recorded as 1. For the same molecule, in assay [3], the “SI SW620” value is reported as 1.
For the molecule `CCOP(=O)(OCC)C1C(=O)Oc2c(OC)cccc2C1P(=O)(c1ccccc1)c1ccccc1` (centres unmarked) [Compound 5b, Diethyl (4-(Diphenylphosphoryl)-8-methoxy-2-oxochroman-3-yl)phosphonate], the IC50 in assay [1] (MDA-MB-231), in assay [4] (PC-3), in assay [2] (SW480), in assay [3] (SW-620), in assay [5] (HaCaT) and in assay [6] (setting [7]) was over 100 µM in each case. Further, in assay [1], the “SI MDA-MB-231” value is given as 1. Also, the “SI PC3” value in assay [4] is on record as 1. Besides, the “SI SW480” value in assay [2] was determined as 1. For the same molecule, in assay [3], the “SI SW620” value amounted to 1.
Take `COc1cccc2c1C(=O)c1c(O)c3c(c(O)c1C2=O)C[C@@](O)(C(=O)CO)C[C@@H]3O[C@H]1C[C@H](N)[C@H](O)[C@H](C)O1` [Doxorubicin, reference compound]: the half-maximal inhibitory concentration (IC50) was found to be 1.6 ± 0.2 µM in assay [1] (MDA-MB-231); 0.3 ± 0.1 µM in assay [4] (PC-3); 0.7 ± 0.1 µM in assay [2] (SW480); 0.3 ± 0.1 µM in assay [3] (SW-620); 0.3 ± 0.1 µM in assay [5] (HaCaT). Further, the “SI PC3” value in assay [4] was 1.0. The “SI SW480” value in assay [2] is on record as 0.4. Besides, the “SI SW620” value in assay [3] stood at 1.0.
